Columns and labels:
Lmna G609G/G609G mouse = test: Life span of Lmna G609G/G609G progeria model mice; type: in vivo; details: i.p. 20 mg/kg twice a week from 5 weeks old
Excerpt: Fig. 3 In vivo favorable effect of SLC-D011. A Gross morphology of Lmna^G609G/G609G mice (10 weeks old) was ameliorated after injection with SLC-D011. At the same age, the experimental group (D011) of mice were larger than vehicle-injected control (Con) subjects regardless of gender. B, C SLC-D011 increases body weight B and extends life span C of Lmna^G609G/G609G progeria model mouse (Con: n = 8; SLC-D011: n = 8). Compared with 14.8 weeks of average (ave) life span with maximum (max) life span of 15.5 weeks, 20 mg/kg of intraperitoneal (i.p) injection (twice a week) of SLC-D011 could extend the life span upto 19 weeks (max = 21 weeks). Lmna^G609G/G609G mice were injected with SLC-D011 from age of 5-week old, *p < 0.05. D Gross morphology of SLC-D011 injected Lmna^G609G/+ mouse. […] E SLC-D011 increases body weights of Lmna^G609G/+ mice (Con: n = 10; SLC-D011: n = 11), *p < 0.05. F Favorable effect of SLC-D011 on life span of Lmna^G609G/+ mice. […] Only the axis reads Age (weeks).
Fig. 4 Oral administration of SLC-D011 suppresses premature aging features. […] H Anti-aging effects of single treatment of SLC-D011 or lonafarnib were measured in HGPS patients-derived cells (AG11513, AG03199, AG11498, and AG03198, Coriell Cell Repositories). […]

Plasma stability, human = type: in vitro ADME
Protocol: (§1) For PK analysis, 5 mg/kg of JH4 in 10% DMSO, 5% Tween 90, and 95% saline solution were intravenously injected and 10 mg/kg of JH4 in 10% NMP and 90% PEG400 solution were orally delivered. At pre-set time-points, blood concentration of JH4 was determined by LC-MS/MS analysis[22],[23]. Other chemicals were also tested using similar protocol. In vitro ADME studies (plasma protein binding, CYP inhibition, microsomal stability, plasma stability, and hERG inhibition) were performed by New Drug Development Center (Daegu, Korea) using standard protocols[24],[25].

[1] = Liver microsomal stability, human; type: in vitro ADME; details: liver microsomes, read-out: Liver microsomal stability (% remaining during 30min)
Protocol: as §1, with “At” for “For PK analysis, 5 mg/kg of JH4 in 10% DMSO, 5% Tween 90, and 95% saline solution were intravenously injected and 10 mg/kg of JH4 in 10% NMP and 90% PEG400 solution were orally delivered. At”

HGPS patients = details: trial without placebo; cited from earlier work

Structure (SMILES) | Maximum life span (Lmna G609G/G609G mouse) | remaining at 0.5 h (Plasma stability, human; 30min) | remaining at 2 h (Plasma stability, human; 120min) | remaining at 0.5 h [1] | Extension of life span (HGPS patients)
CC1(C)Oc2cc3oc(=O)ccc3cc2C[C@@H]1OC/C=C/c1ccccc1 [SLC-D011] | 21 weeks | > 100% | > 100% | 21.5% | –
NC(=O)N1CCC(CC(=O)N2CCC([C@H]3c4ncc(Br)cc4CCc4cc(Cl)cc(Br)c43)CC2)CC1 [lonafarnib, reference compound] | – | – | – | – | ~ 2 years
